Columns and labels:
Assay type in all cases: in vivo
[1] = tested on: barnyardgrass (Echinochloa crus-galli); assay: Test A preemergence, barnyardgrass; conditions: Preemergence; for Barnyardgrass plant response rating: visual injury on 0 to 100 scale (0 no effect, 100 complete control), approximately 10 days; for Plant response rating, Barnyardgrass: 0 to 100 scale (0 no effect, 100 complete control)
Procedure, shortened: (§1)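 Preemergence: seeded pots of loam plus sand received a directed soil spray. Postemergence: seedlings at one to two leaves, 2 to 10 cm high, were oversprayed. Each compound was formulated in a non-phytotoxic solvent mix that included a surfactant.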

[2] = tested on: pigweed (Amaranthus retroflexus); assay: Test A preemergence, pigweed; conditions: for Pigweed plant response rating: visual injury on 0 to 100 scale (0 no effect, 100 complete control), approximately 10 days; for Plant response rating, Pigweed: 0 to 100 scale (0 no effect, 100 complete control)
Procedure, shortened: (§2)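 Seeds are sown in loam mixed with sand and sprayed on the soil surface right after planting for the preemergence test. Postemergence pots are sprayed once seedlings reach 2 to 10 cm at the one- to two-leaf stage. The same surfactant-containing, non-phytotoxic solvent formulation serves both.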

[3] = tested on: wheat (Triticum aestivum); assay: Test A postemergence, wheat; conditions: Postemergence, 0 to 100 scale (0 no effect, 100 complete control)
Procedure, shortened: as §2

[4] = tested on: ragweed (common ragweed, Ambrosia artemisiifolia); assay: Test A preemergence, ragweed; conditions: Preemergence; for Ragweed plant response rating: visual injury on 0 to 100 scale (0 no effect, 100 complete control), approximately 10 days; for Plant response rating, Ragweed: 0 to 100 scale (0 no effect, 100 complete control)
Procedure, shortened: as §1

[5] = tested on: barnyardgrass (Echinochloa crus-galli); assay: Test A postemergence, barnyardgrass; conditions: Postemergence, 0 to 100 scale (0 no effect, 100 complete control)
Procedure, shortened: as §2

kochia (Bassia scoparia) [6] = assay: Test A postemergence, kochia; conditions: Postemergence, 0 to 100 scale (0 no effect, 100 complete control)
Procedure, shortened: as §1

[7] = tested on: blackgrass (Alopecurus myosuroides); assay: Test A postemergence, blackgrass; conditions: Postemergence, 0 to 100 scale (0 no effect, 100 complete control)
Procedure, shortened: as §1

[8] = tested on: ragweed (common ragweed, Ambrosia artemisiifolia); assay: Test A postemergence, ragweed; conditions: Postemergence, 0 to 100 scale (0 no effect, 100 complete control)
Procedure, shortened: as §1

kochia (Bassia scoparia) [9] = assay: Test A preemergence, kochia; conditions: Preemergence; for Kochia plant response rating: visual injury on 0 to 100 scale (0 no effect, 100 complete control), approximately 10 days; for Plant response rating, Kochia: 0 to 100 scale (0 no effect, 100 complete control)
Procedure, shortened: as §1

[10] = tested on: Foxtail, Giant (giant foxtail, Setaria faberi); assay: Test A preemergence, Foxtail, Giant; conditions: Preemergence; for Foxtail, Giant plant response rating: visual injury on 0 to 100 scale (0 no effect, 100 complete control), approximately 10 days; for Plant response rating, Foxtail, Giant: 0 to 100 scale (0 no effect, 100 complete control)
Procedure, shortened: as §1

[11] = tested on: Ryegrass, Italian (Italian ryegrass, Lolium multiflorum); assay: Test A postemergence, Ryegrass, Italian; conditions: Postemergence, 0 to 100 scale (0 no effect, 100 complete control)
Procedure, shortened: as §1

[12] = tested on: Foxtail, Giant (giant foxtail, Setaria faberi); assay: Test A postemergence, Foxtail, Giant; conditions: Postemergence, 0 to 100 scale (0 no effect, 100 complete control)
Procedure, shortened: as §1

[13] = tested on: galium (catchweed bedstraw, Galium aparine); assay: Test A postemergence, galium; conditions: Postemergence, 0 to 100 scale (0 no effect, 100 complete control)
Procedure, shortened: as §2

[14] = tested on: Ryegrass, Italian (Italian ryegrass, Lolium multiflorum); assay: Test A preemergence, Ryegrass, Italian; conditions: Preemergence; for Ryegrass, Italian plant response rating: visual injury on 0 to 100 scale (0 no effect, 100 complete control), approximately 10 days; for Plant response rating, Ryegrass, Italian: 0 to 100 scale (0 no effect, 100 complete control)
Procedure, shortened: as §1

[15] = tested on: pigweed (Amaranthus retroflexus); assay: Test A postemergence, pigweed; conditions: Postemergence, 0 to 100 scale (0 no effect, 100 complete control)
Procedure, shortened: as §1

corn (Zea mays) = assay: Test A postemergence, corn; conditions: Postemergence, 0 to 100 scale (0 no effect, 100 complete control)
Procedure, shortened: as §1

[16] = 500 g ai/ha, visual injury vs untreated controls after approx. 10 days
[17] = 125 g ai/ha, visual injury, approx. 10 days
[18] = 500 g ai/ha, visual injury approx. 10 days
[19] = 31 g ai/ha, visual injury, approx. 10 days
[20] = 125 g ai/ha, visual injury approx. 10 days

Compound: Cc1cc(Cl)c(C2=NOC(C)(C)C2)cc1NS(=O)(=O)C(F)(F)F [Compound 183]
- Barnyardgrass plant response rating ([1]; 125 g ai/ha): 90
- Plant response rating, Barnyardgrass ([1]; 500 g ai/ha): 100
- Pigweed plant response rating ([2]; 125 g ai/ha): 70
- Plant response rating, Pigweed ([2]; 500 g ai/ha): 80
- Plant response rating, Wheat ([3]; 125 g ai/ha): 0
- Wheat plant response rating [3, 16]: 0
- Ragweed plant response rating ([4]; 125 g ai/ha): 20
- Plant response rating, Ragweed ([4]; 500 g ai/ha): 90
- Plant response rating, Barnyardgrass ([5]; 125 g ai/ha): 20
- Barnyardgrass plant response rating [5, 16]: 70
- Plant response rating, Kochia (kochia (Bassia scoparia) [6]; 125 g ai/ha): 10
- Kochia plant response rating (kochia (Bassia scoparia) [6]; [16]): 50
- Plant response rating, Blackgrass ([7]; 125 g ai/ha): 10
- Blackgrass plant response rating [7, 16]: 10
- Plant response rating, Ragweed ([8]; 125 g ai/ha): 60
- Ragweed plant response rating [8, 16]: 80
- Kochia plant response rating (kochia (Bassia scoparia) [9]; 125 g ai/ha): 20
- Plant response rating, Kochia (kochia (Bassia scoparia) [9]; 500 g ai/ha): 60
- Foxtail, Giant plant response rating ([10]; 125 g ai/ha): 50
- Plant response rating, Foxtail, Giant ([10]; 500 g ai/ha): 70
- Plant response rating, Ryegrass, Italian ([11]; 125 g ai/ha): 0
- Ryegrass, Italian plant response rating [11, 16]: 0
- Plant response rating, Foxtail, Giant ([12]; 125 g ai/ha): 0
- Foxtail, Giant plant response rating [12, 16]: 10
- Plant response rating, Galium ([13]; 125 g ai/ha): 70
- Galium plant response rating [13, 16]: 90
- Ryegrass, Italian plant response rating ([14]; 125 g ai/ha): 70
- Plant response rating, Ryegrass, Italian ([14]; 500 g ai/ha): 100
- Plant response rating, Pigweed ([15]; 125 g ai/ha): 30
- Pigweed plant response rating [15, 16]: 30
- Plant response rating, Corn (corn (Zea mays); 125 g ai/ha): 0
- Corn plant response rating (corn (Zea mays); [16]): 30

Compound: Cc1cc(Cl)c(C(=O)N(C)C)cc1N(S(=O)(=O)C(F)(F)F)S(=O)(=O)C(F)(F)F [Compound 256]
- Plant response rating, Barnyardgrass [1, 17]: 90
- Barnyardgrass plant response rating ([1]; 500 g ai/ha): 100
- Plant response rating, Pigweed [2, 17]: 100
- Pigweed plant response rating ([2]; 500 g ai/ha): 100
- Plant response rating, Wheat ([3]; 125 g ai/ha): 20
- Plant response rating, Wheat [3, 18]: 60
- Plant response rating, Ragweed [4, 17]: 60
- Ragweed plant response rating ([4]; 500 g ai/ha): 80
- Plant response rating, Barnyardgrass ([5]; 125 g ai/ha): 60
- Plant response rating, Barnyardgrass [5, 18]: 50
- Plant response rating, Kochia (kochia (Bassia scoparia) [6]; 125 g ai/ha): 50
- Plant response rating, Kochia (kochia (Bassia scoparia) [6]; [18]): 70
- Plant response rating, Blackgrass ([7]; 125 g ai/ha): 0
- Plant response rating, Blackgrass [7, 18]: 0
- Plant response rating, Ragweed ([8]; 125 g ai/ha): 40
- Plant response rating, Ragweed [8, 18]: 80
- Plant response rating, Kochia (kochia (Bassia scoparia) [9]; [17]): 60
- Kochia plant response rating (kochia (Bassia scoparia) [9]; 500 g ai/ha): 90
- Plant response rating, Foxtail, Giant [10, 17]: 30
- Foxtail, Giant plant response rating ([10]; 500 g ai/ha): 90
- Plant response rating, Ryegrass, Italian ([11]; 125 g ai/ha): 0
- Plant response rating, Ryegrass, Italian [11, 18]: 50
- Plant response rating, Foxtail, Giant ([12]; 125 g ai/ha): 10
- Plant response rating, Foxtail, Giant [12, 18]: 0
- Plant response rating, Galium ([13]; 125 g ai/ha): 60
- Plant response rating, Galium [13, 18]: 80
- Plant response rating, Ryegrass, Italian [14, 17]: 80
- Ryegrass, Italian plant response rating ([14]; 500 g ai/ha): 100
- Plant response rating, Pigweed ([15]; 125 g ai/ha): 60
- Plant response rating, Pigweed [15, 18]: 80
- Plant response rating, Corn (corn (Zea mays); 125 g ai/ha): 0
- Plant response rating, Corn (corn (Zea mays); [18]): 20

Compound: Cc1cc(C(=O)N2CCOC(C)(C)C2)cc(NS(=O)(=O)C(F)(F)F)c1Cl [Compound 2]
- Plant response rating, Barnyardgrass [1, 19]: 0
- Barnyardgrass plant response rating ([1]; 125 g ai/ha): 60
- Plant response rating, Pigweed [2, 19]: 100
- Pigweed plant response rating ([2]; 125 g ai/ha): 100
- Plant response rating, Wheat ([3]; 31 g ai/ha): 40
- Plant response rating, Wheat [3, 20]: 60
- Plant response rating, Ragweed [4, 19]: 30
- Ragweed plant response rating ([4]; 125 g ai/ha): 90
- Plant response rating, Barnyardgrass ([5]; 31 g ai/ha): 30
- Plant response rating, Barnyardgrass [5, 20]: 80
- Plant response rating, Kochia (kochia (Bassia scoparia) [6]; 31 g ai/ha): 10
- Plant response rating, Kochia (kochia (Bassia scoparia) [6]; [20]): 20
- Plant response rating, Blackgrass ([7]; 31 g ai/ha): 0
- Plant response rating, Blackgrass [7, 20]: 0
- Plant response rating, Ragweed ([8]; 31 g ai/ha): 30
- Plant response rating, Ragweed [8, 20]: 80
- Plant response rating, Kochia (kochia (Bassia scoparia) [9]; [19]): 20
- Kochia plant response rating (kochia (Bassia scoparia) [9]; 125 g ai/ha): 50
- Plant response rating, Foxtail, Giant [10, 19]: 80
- Foxtail, Giant plant response rating ([10]; 125 g ai/ha): 80
- Plant response rating, Ryegrass, Italian ([11]; 31 g ai/ha): 0
- Plant response rating, Ryegrass, Italian [11, 20]: 40
- Plant response rating, Foxtail, Giant ([12]; 31 g ai/ha): 20
- Plant response rating, Foxtail, Giant [12, 20]: 50
- Plant response rating, Galium ([13]; 31 g ai/ha): 90
- Plant response rating, Galium [13, 20]: 90
- Plant response rating, Ryegrass, Italian [14, 19]: 30
- Ryegrass, Italian plant response rating ([14]; 125 g ai/ha): 50
- Plant response rating, Pigweed ([15]; 31 g ai/ha): 60
- Plant response rating, Pigweed [15, 20]: 70
- Plant response rating, Corn (corn (Zea mays); 31 g ai/ha): 20
- Plant response rating, Corn (corn (Zea mays); [20]): 30

From patent US20230278972A1, “SUBSTITUTED HALOALKYL SULFONANILIDE HERBICIDES” (FMC Corporation, priority 2020, published 2023)
